What follows are compounds tested against 15-PGDH (Homo sapiens (Human), UniProt P15428) (assay: Detection of activity of 15-PGDH enzyme). Settings: inhibitory activity against 15-PGDH enzyme; substrates β-NAD and PGF2α; fluorescence Ex/Em=340/450.
Sequence of 15-PGDH (P15428 whole entry): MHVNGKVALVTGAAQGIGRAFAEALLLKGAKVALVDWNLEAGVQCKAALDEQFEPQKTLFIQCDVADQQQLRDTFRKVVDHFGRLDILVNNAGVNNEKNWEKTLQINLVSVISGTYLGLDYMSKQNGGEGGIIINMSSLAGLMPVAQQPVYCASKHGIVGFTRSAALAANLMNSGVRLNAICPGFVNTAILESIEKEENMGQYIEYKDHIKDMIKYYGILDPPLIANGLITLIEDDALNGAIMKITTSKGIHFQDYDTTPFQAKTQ
Assay type: biochemical
Procedure: • a. A solution of pH 7.5 containing 50 mM Tris-HCl, 0.01% Tween 20 was prepared with ultrapure water as a reaction buffer; • b. A 10 mM mother liquor of the compound to be tested was prepared with DMSO, and then the reaction buffer was used to dilute the mother liquor of the compound to be tested to obtain solution 1 of the compound to be tested at a concentration of 40,000 nM, and then the solution 1 of the compound to be tested was serially diluted into solutions 2-9 (or 2-12) of the compound to be tested at 9 (or 11) concentrations with a gradient difference of three-fold. 5 μL of each concentration of solutions of the compound to be tested was respectively taken and added into a 384-well plate as test wells; • c. 5 μL of the reaction buffer was then added to the blank wells of the 384-well plate as positive control and blank control wells, respectively; • d. The reaction buffer was used to prepare a 15-PGDH protein solution at a concentration of 5 ng/μL, 5 μL of the 15-PGDH protein solution was taken and added to the test wells and positive control wells, and meanwhile 5 μL of the reaction buffer was added to the blank control wells, then the plate was centrifuged at 2000 rpm for 30 seconds; • e. The reaction buffer was used to prepare 5 mM $3-NAD and 2 mM PGF2α, respectively, which were mixed at 1:1 by volume to obtain a substrate mixture, 10 μL of the substrate mixture was taken and added to the test wells, positive control wells and blank control wells to start the reaction; • f. The fluorescence signal value (Ex/Em=340/450) of each well was detected continuously by using a multifunctional microplate reader.
• a) Continuous fluorescence signal values were analyzed by using the “kinetic calculations-slope calculation method” in the PHERAstar Data analysis software to obtain the slope of each test well; • b) The inhibition rate % was calculated by using the following formula: inhibition rate %=[1−(slope of test well-signal value of positive control well)/(signal value of blank control well-average signal value of positive control well)]×100%. • c) Calculation of IC50 and plotting of inhibition rate-dose curves: IC50 values were calculated by fitting compound concentrations and corresponding inhibition rates with a nonlinear regression (dose response-variable slope) via using GraphPad Prism 6.0. The formula was shown below:
Y=Bottom+(Top−Bottom)/(1+10^((Log IC50−X)*HillSlope)), wherein X is a log value of a concentration of the compound, and Y is inhibition rate %.
Compound `O=C(c1sc2nc(-c3cncnc3)cnc2c1C(F)(F)F)N1CCCCC1` [Example 91] has an IC50 of 3 to 10 nM.
`CN1Cc2cc(-c3cnc4c(C(F)(F)F)c(C(=O)N5CCCCC5)sc4n3)ccc2C1=O` [Example 94] gave an IC50 of 3 to 10 nM.
Compound `COc1c(C(=O)N2CCCCC2)sc2nc(-c3ccccc3)cnc12` [Example 95] has an IC50 of 3 to 10 nM.
For `Cc1c(C(=O)N2CCCCC2)sc2nc(-c3ccccc3)cnc12` [Example 96], the IC50 was 10 to 20 nM.
`CCc1c(C(=O)N2CCCCC2)sc2nc(-c3ccccc3)cnc12` [Example 97] was tested, and the IC50 was 3 to 10 nM.
Compound `O=C(c1sc2nc(-c3ccccc3)cnc2c1Br)N1CCCCC1` [Example 98] has an IC50 of under 3 nM.
Compound `CC(C)c1c(C(=O)N2CCCCC2)sc2nc(-c3ccccc3)cnc12` [Example 99] has an IC50 of 10 to 20 nM.
For `O=C(c1cc2ncc(-c3ccccc3)nc2s1)N1CCCCC1` [Example 100], the IC50 was 10 to 20 nM.
For `O=C(c1sc2nc(-c3ccccc3)cnc2c1O)N1CCCCC1` [Example 101], the IC50 was 50 to 100 nM.

Source: patent US20260001892A1, “COMPOUND FOR REGULATING AND CONTROLLING ACTIVITY OF 15-PGDH AND PREPARATION METHOD THEREFOR” (SCINNOHUB PHARMACEUTICAL CO., LTD., priority 2022, published 2026)
